Test results: article PMC2874192 (Cancer research, 2010)

How the values were obtained:
[1] = humans, within 24 h, primarily through kidneys; cited from earlier work
CXCR4 receptor = conditions: Cu-bound vs unbound AMD3100; cited from earlier work
[2] = no reference given; cited from earlier work
[3] = system: U87 and U87-stb-CXCR4 glioblastoma xenografts; assay: Ex vivo biodistribution in subcutaneous brain tumor model; design: species or system NOD/SCID mice; conditions: 740 kBq, 90 min after injection
[4] = system: U87 and U87-stb-CXCR4 glioblastoma xenografts; type: in vivo; conditions: whole body image at 90 min

| SMILES | drug eliminated as parent [1] [%] | increase of affinity to the CXCR4 receptor by Cu bound to the cyclam (CXCR4 receptor) [fold] | plasma protein bound [2] [%] | radioactivity distribution (ex vivo biodistribution) [3] | distribution of radiotracer (PET) [4] |
| --- | --- | --- | --- | --- | --- |
| c1cc(CN2CCCNCCNCCCNCC2)ccc1CN1CCCNCCNCCCNCC1 [AMD3100] | ~70 | 6 | ~58 | – | – |
| [Cl][64Cu][Cl] [[^64Cu]CuCl2] | – | – | – | uniform | uniform distribution |
